For data set [1] the following is noted: of associated acids; cited from earlier work.
Data set [2] concerns Brassica integrifolia. As to the kind of experiment: Growing Brassica integrifolia in planting pots. It counts as in vivo. The conditions noted are these: day 31 after planting, 10 g fertilizer per pot. The protocol:
Fertilizers comprising different functional layers were used for growing Brassica integrifolia. The experiments were done in plastic planting pots containing 5 Kg of a growth media comprising 50% coconut fibers and 50% topsoil. The N, P2O5 and K2O contents in 100 g of the growth media were 7.7 mg, 32 mg and 34 mg, respectively. Ten grams of urea were buried in the growth media at around 3 cm depth as a comparative example (Example 41). Alternatively, 10 grams of various smart N-fertilizers comprising different organic functional layer 104 were buried into the growth media at around 3 cm depth (Examples 42 and following). Then, ten seeds of Brassica integrifolia (also called English spinach) were placed in each planting pot. The planting pots were placed outdoor and wetted with 200 ml water every day.
Smart N-Fertilizers with different organic functional layer comprising tannic acid and its modifiers were used for growing Brassica integrifolia. These experiments were carried out as described above for Examples 42 to 48.
Smart N-Fertilizers with different organic functional layer were used for growing Brassica integrifolia. These experiments were carried out as described above for Examples 42 to 48, with the exception of Example 55 (comparative), in which ten grams of DAP were buried in the growth media at around 3 cm depth as a comparative example.

[3] abbreviates: Examples 41, 49-54 (tannic acid layers).

Each structure is given as a SMILES string.

What is called pKa is the negative logarithm of the acid dissociation constant.

Take `O=C(O)COc1ccc(Cl)cc1` [4-Chlorophenyloxy acetoate, 4-Chlorophenoxyacetic Acid]: the pKa in data set [1] is on record as 3.58.
Regarding `N.N.O=P(O)(O)O` [DAP, Diammonium phosphate], in data set [2] (Examples 55-64 (DAP core)), the Height is recorded as 7.60 cm, the Leaf length came out at 4.20 cm, the Leaf width is listed as 2.40 cm and the Total yield is 15 gram. Moreover, the “Weight of 6 plants” value in data set [2] (Examples 55-64 (DAP core)) worked out at 9 gram.
In data set [2] (setting [3]), `NC(N)=O` [Urea, urea] displayed a Height of 4.90 cm, a Leaf length of 2.00 cm, a Leaf width of 1.00 cm and a Total yield of 5 gram. In data set [2] (setting [3]), the “Weight of 6 plants” value amounted to 5 gram. In addition, in data set [2] (Examples 41-48), the Height turned out to be 4.90 cm, the Leaf length came to 2.00 cm, the Leaf width was 1.00 cm and the Total yield stood at 5 gram. For the same compound, the “Weight of 6 plants” value in data set [2] (Examples 41-48) is recorded as 5 gram.
Turning to `O=C(O)Cc1cccc2ccccc12` [1-Naphthalene acetoate, 1-Naphthalene Acetic Acid], the pKa in data set [1] was 4.23.

(Values after US11649195B2, “Smart release nitrogen-containing fertilizer granules” (RYNAN TECHNOLOGIES PTE. LTD., priority 2018, dated 2023).)
